Tested on: mice
Assay: acute toxicity (LD50) after bolus intravenous administration
Format: in vivo
Conditions: ratio to the analogue lacking the 6-substituent (or 5- and 6-substituents) in the pyridyl group
Description: The compounds of Structure (2) have particularly good histamine H,- and H2- antagonist activity and are less acutely toxic in mice (when administered intravenously) than the corresponding compounds of Structure (2) in which R is hydrogen. This decrease in acute toxicity is in general is not accompanied by a reduction in histamine H1-antagonist activity or histamine H2-antagonist activity. […] (LD50 is the minimum dose which kills 50% of mice after bolus intravenous administration of the test compound).

In the case of `COc1ccc(Cc2cnc(NCCSCc3nc[nH]c3C)[nH]c2=O)cn1` [Example 13, 2-[2-(5-methyl-4-imidazolylmethylthio)ethylamino]-5-(6-methoxy-3-pyridyImethyl)-4-pyrimidone], the “LD50 value compared with the corresponding 5-(3-pyridylmethyl) analogue” value is reported as “at least three”.
In the case of `Cc1ccc(Cc2cnc(NCCSCc3nc[nH]c3C)[nH]c2=O)cn1` [Example 2, 2-[2-(5-methyl-4-imidazolylmethylthio)ethylamino]-5-(6-methyl-3-pyridylmethyl)-4-pyrimidone], the “LD50 value compared with the corresponding 5-(3-pyridylmethyl) analogue” value is reported as “at least three”.
In the case of `Cc1ccc(Cc2cnc(NCCCCc3ncccc3Cl)[nH]c2=O)cn1` [Example 7, 2-[4-(3-chloro-2-pyridyl)butylamino]-5-(6-methyl-3-pyridyImethyl)-4-pyrimidone], the “LD50 value compared with the corresponding 5-(3-pyridylmethyl) analogue” value is reported as “at least three”.
In the case of `Cc1ccc(Cc2cnc(NCCSCc3nccs3)[nH]c2=O)cn1` [Example 9, 2-[2-(2-thiazolylmethylthio)ethylamino]-5-(6-methyl-3-pyridylmethyl)-4-pyrimidone], the “LD50 value compared with the corresponding 5-(3-pyridylmethyl) analogue” value is reported as “at least three”.
`COc1cccnc1CCCCNc1ncc(Cc2ccc(C)nc2)c(=O)[nH]1` [Example 1, 2-[4-(3-methoxy-2-pyridyl)butylamino]-5-(6-methyl-3-pyridylmethyl)-4-pyrimidone] was tested, and the “LD50 value compared with the corresponding 5-(3-pyridylmethyl) analogue” value was “at least three”.
`Cc1cc(Cc2cnc(NCCSCc3ncccc3Br)[nH]c2=O)cnc1C` [Example 11, 2-[2-(3-bromo-2-pyridylmethylthio)ethylamino]-5-(5,6-dimethyl-3-pyridylmethyl)-4-pyrimidone] was tested, and the “LD50 value compared with the corresponding 5-(3-pyridylmethyl) analogue” value was “at least three”.
